{"source": "patent US20070053892A1", "about": "“Methods and kits for co-administration of nutritional supplements” (Everett Laboratories, Inc., priority 2005, published 2007)", "origin": "cited, not measured here", "key": {"[1]": {"details": "patients with hypertension"}, "[2]": {"details": "patients with congestive heart failure"}, "[3]": {"details": "patients with ischemic heart disease"}, "[4]": {"details": "patients with cardiomyopathy"}}, "data": [{"smiles": "COC1=C(OC)C(=O)C(C/C=C(\\C)CC/C=C(\\C)CC/C=C(\\C)CC/C=C(\\C)CC/C=C(\\C)CC/C=C(\\C)CC/C=C(\\C)CC/C=C(\\C)CC/C=C(\\C)CCC=C(C)C)=C(C)C1=O", "note": "[CoQ10, coenzyme Q10]", "values": [{"measurement": "blood pressure", "setting": "[1]", "result": "significantly reduce blood pressure"}, {"measurement": "myocardial metabolic function, blood pressure, myocardial thickness", "setting": "[2]", "result": "improve myocardial metabolic function, reduce blood pressure, and reduce myocardial thickness"}, {"measurement": "magnitude and rate of clinical improvement", "setting": "[3]", "result": "enhances both the magnitude and rate of clinical improvement"}, {"measurement": "cardiac function including ejection fraction and cardiac output", "setting": "[4]", "result": "significant improvement in cardiac function"}]}]}
